These are literature values, as cited in patent US5908840A, “Hetero-biaryl-pyridoquinazolinone derivatives as anti-cancer agents” (American Cyanamid Company, priority 1997, dated 1999).

Molecules are shown by their SMILES.

The conditions of data set [1]: Denny et al., Mutation Research 232: 233 (1990).
A further data set deals with P388. The note with it: Denny et al., Mutation Research 232: 233 (1990).
The conditions of data set [2]: Denny et al.; Ebeid et al.

Take `CN(C)CCNC(=O)c1cccn2c(=O)c3ccccc3nc12` [I, N-[2-(dimethylamino)ethyl]-11-oxo-11H-pyrido[2,1-b]quinalzoline-6-carboxamide]: the mutagenic activity entry in data set [1] was “mutagenic activity”. The “activity in a P388 mouse model” value with P388 was “inactive”. Further, the in vitro activity result in data set [2] was “some in vitro activity”.
